Results published in ChEMBL document CHEMBL1125926, “Anesthetic steroid mobility in model membrane preparations as examined by high-resolution 1H and 2H NMR spectroscopy” (1991).
Calls of active or inactive are those of the source. No cut-off for these calls is given here.

What was measured:
[1] = Compound was evaluated for anesthetic activity (lowest dose producing loss of righting reflex); assay type: functional
[2] = Compound was evaluated for anesthetic activity (lowest dose producing loss of righting reflex); IA=Inactive; assay type: functional

Row | Structure (SMILES) | Activity [1] [mg/kg] | Activity [2]
1 | CC(=O)C1CC[C@H]2[C@@H]3CC[C@H]4C[C@@H](O)CCC4(C)[C@H]3CCC12C (some centres not stated) | 100 | 
2 | CC(=O)[C@H]1CC[C@H]2[C@@H]3CC[C@H]4C[C@H](O)CC[C@]4(C)[C@H]3C(=O)C[C@]12C [ALFAXALONE] | 3.1 | 
3 | CC(=O)[C@H]1CC[C@H]2[C@@H]3CC[C@@H]4C[C@H](O)CC[C@]4(C)[C@H]3C(=O)C[C@]12C [RENANOLONE] | 6.3 | 
4 | CC(=O)C1CC[C@H]2[C@@H]3CC[C@@H]4C[C@H](O)CCC4(C)[C@H]3CCC12C (some centres not stated) | 3.1 | 
5 | CC(=O)C1=CCC2C3CC[C@H]4C[C@H](O)CCC4(C)C3C(=O)CC12C (some centres not stated) |  | inactive
6 | CC(=O)C1CC[C@H]2[C@@H]3CC[C@@H]4C[C@@H](O)CCC4(C)[C@H]3CCC12C (some centres not stated) | 25 | 
7 | CC(=O)[C@H]1CC[C@H]2[C@@H]3CC[C@H]4C[C@H](O)CC[C@]4(C)[C@H]3CC[C@]12C [BREXANOLONE] | 3.1 | 
